The record followed here is article PMC12362783 (Advanced Science, 2025).

Assay [1] relates to MDA‐MB‐231. In words: Cell growth inhibition, CellTiter‐Glo (CTG). The note with it: Homo sapiens, MDA-MB-231, 120 h, read-out: IC50 MDA‐MB‐231; CTG, 5 days, n = 3. Type of assay: cell-based. The method, then: (§1) All cells were grown in a humidified incubator at 37 °C and 5% CO2.
(§2) […] […] Relative viability was calculated by normalizing the raw luminescence counts of the treated groups to those of the DMSO control groups. IC₅₀ values were calculated using sigmoidal dose‐response curve fitting with GraphPad Prism 9.0 software.

The subject of assay [2] is MDA‐MB‐468. Nature of the assay: Cell growth inhibition, CellTiter‐Glo (CTG). Type of assay: cell-based. To be noted: Homo sapiens, MDA-MB-468, 120 h; CTG, 5 days, n = 3. The method, then: as §1, §2
Assay [3] concerns MDA‐MB‐231 cells. In words: Cell cycle assay, flow cytometry (PI). Type of assay: cell-based. To be noted: MDA‐MB‐231, 48 h; A7, B8 0.5 and 1.0 µM, controls 1.0 µM. The method, then:
(§3) The cell cycle analysis was performed with cells seeded in 6‐well plates in growth media. The cells were allowed to attach overnight (8 h). The cultures were treated with different tested drugs for 48 h. After treatment, cells were collected and fixed with 70% pre‐cold ethanol in PBS and stored at −20 °C overnight. Then washed the cells with PBS twice, and incubated with 100 µg mL^−1 RNase A at 37 °C for 1 h, stained with propidium iodide for 30 min avoid light at room temperature. The stained cells were analyzed by flow cytometry. The percentages of cells in the G1, S, and G2/M phases were determined. The data were analyzed by FlowJo software (Tree Star, Inc., Ashland, OR).
On the technique in general: A flow cytometer gives signals particle by particle.

Assay [4] deals with MDA‐MB‐468 cells. In words: Cell cycle assay, flow cytometry (PI). Type of assay: cell-based. To be noted: MDA‐MB‐468, 48 h; A7, B8 0.5 and 1.0 µM, controls 1.0 µM. The method, then:
as §3

Assay [5] deals with MCF‐10A. In words: Cell growth inhibition, normal breast cell line. Type of assay: cell-based. The note with it: Homo sapiens, MCF-10A; @30 µM; read-out: MCF‐10A inhibitory rate at certain concentration. How it is done:
(§4) Growth viability was determined by the CellTiter‐Glo luminescent viability assay (Promega) 5 days after drug treatment. Cell viability was measured immediately after dosing (Day 0) and after 5 days of incubation using CellTiter‐Glo (CTG, Promega, G7573). Relative viability was calculated by normalizing the raw luminescence counts of the treated groups to those of the DMSO control groups. IC₅₀ values were calculated using sigmoidal dose‐response curve fitting with GraphPad Prism 9.0 software.

Assay [6] deals with MCF‐7. Nature of the assay: Cell growth inhibition, CellTiter‐Glo (CTG). Type of assay: cell-based. The note with it: Homo sapiens, MCF7; n = 3. How it is done:
as §4

The test system of assay [7] is MDA‐MB‐453. Nature of the assay: Cell growth inhibition, CellTiter‐Glo (CTG). Type of assay: cell-based. To be noted: Homo sapiens. The method, then: as §4
Assay [8] concerns MDA‐MB‐436. In words: Cell growth inhibition, CellTiter‐Glo (CTG). Type of assay: cell-based. To be noted: CTG, 5 days, n = 3. The method, then: as §1, §4
Assay [9] addresses T1, ATR (Homo sapiens, UniProt Q13535).
T1 construct: purchased Eurofins 14-953
In words: ATR kinase inhibition, Mobility Shift Assay. In kind it is biochemical. To be noted: for IC50: n = 3, mean ± SD. The method, then:
The in vitro ATR kinase inhibitory activities were determined by ChemPartner Co., Ltd. (Shanghai, China) using the Mobility Shift Assay. The tested compound was dissolved with DMSO and diluted to 1000/3 × of the final desired highest inhibitor concentration in the reaction. […] The assay wells were incubated at 28 °C for 4 h.

For assay [10], the system named is TNBC cells (MDA‐MB‐231, MDA‐MB‐468, MDA‐MB‐436). In words: Anti‐proliferative activity across three TNBC cell lines (summary). Type of assay: cell-based. How it is done:
as §4, with “Cells were grown at 37 °C, under 95% air and 5% CO₂ until they reached about 70% confluence and were subcultured at least twice before the experiment. Cells were seeded at a density of 1000 cells/well in two 384‐well white plates, and the plates were placed in a 5% CO₂ incubator overnight. Growth” for “Growth”

Assay [11] addresses PARP1 (Homo sapiens, UniProt P09874). In words: PARP enzymatic inhibition ELISA (PARP1). Type of assay: biochemical. The note with it: for IC50: n = 3, mean ± SD. How it is done:
The PARP activity assay was performed by ChemPartner (Shanghai, China). Each well was precoated with histone (final conc.: 100 ng mL^−1) diluted in PBS buffer (contains 10 mmol L^−1 NaH2PO4 and 150 mmol L^−1 NaCl, pH 7.4) by incubation at 4 °C overnight. […] The reaction was initiated by the addition of 10 µL of PARP (final conc.: 0.007 nM/well) at room temperature for 60 min. Add 20 µL of anti‐Poly/Mono‐ADP Ribose Rabbit mAb. Incubate for 1.5 h at room temperature and wash the plate three times using PBST buffer. […] Incubate for 1 h at room temperature and wash the plate three times using PBST buffer. Add 25 µL Femto‐ECL Substrate A and Femto‐ECL Substrate B (1:1) mix. Immediately read chemiluminescence on Envision (Revvity, USA).
In general terms: ELISA stands for enzyme-linked immunosorbent assay.

Assay [12] concerns MDA‐MB‐231 cells. In words: Cell apoptosis assay, Annexin V‐FITC/PI. Type of assay: cell-based. To be noted: MDA‐MB‐231, 72 h. How it is done: (§5) The cell apoptosis analysis was performed with cells seeded in 6‐well plates in growth media. The cells were allowed to attach overnight (8 h). The cultures were treated with different tested drugs for 72 h and evaluated using an Annexin V Flow Kit (BioLegend#B367750) according to the manufacturer's instructions. The data were analyzed by FlowJo software (Tree Star, Inc., Ashland, OR).

Assay [13] relates to MDA‐MB‐468 cells. Nature of the assay: Cell apoptosis assay, Annexin V‐FITC/PI. In kind it is cell-based. The note with it: MDA‐MB‐468, 72 h. How it is done: as §5
Setting [14] is: Homo sapiens, MDA-MB-436, 120 h.

Where two headings read alike, the source gives them in different places.

Chain of PARP1 (P09874 whole entry): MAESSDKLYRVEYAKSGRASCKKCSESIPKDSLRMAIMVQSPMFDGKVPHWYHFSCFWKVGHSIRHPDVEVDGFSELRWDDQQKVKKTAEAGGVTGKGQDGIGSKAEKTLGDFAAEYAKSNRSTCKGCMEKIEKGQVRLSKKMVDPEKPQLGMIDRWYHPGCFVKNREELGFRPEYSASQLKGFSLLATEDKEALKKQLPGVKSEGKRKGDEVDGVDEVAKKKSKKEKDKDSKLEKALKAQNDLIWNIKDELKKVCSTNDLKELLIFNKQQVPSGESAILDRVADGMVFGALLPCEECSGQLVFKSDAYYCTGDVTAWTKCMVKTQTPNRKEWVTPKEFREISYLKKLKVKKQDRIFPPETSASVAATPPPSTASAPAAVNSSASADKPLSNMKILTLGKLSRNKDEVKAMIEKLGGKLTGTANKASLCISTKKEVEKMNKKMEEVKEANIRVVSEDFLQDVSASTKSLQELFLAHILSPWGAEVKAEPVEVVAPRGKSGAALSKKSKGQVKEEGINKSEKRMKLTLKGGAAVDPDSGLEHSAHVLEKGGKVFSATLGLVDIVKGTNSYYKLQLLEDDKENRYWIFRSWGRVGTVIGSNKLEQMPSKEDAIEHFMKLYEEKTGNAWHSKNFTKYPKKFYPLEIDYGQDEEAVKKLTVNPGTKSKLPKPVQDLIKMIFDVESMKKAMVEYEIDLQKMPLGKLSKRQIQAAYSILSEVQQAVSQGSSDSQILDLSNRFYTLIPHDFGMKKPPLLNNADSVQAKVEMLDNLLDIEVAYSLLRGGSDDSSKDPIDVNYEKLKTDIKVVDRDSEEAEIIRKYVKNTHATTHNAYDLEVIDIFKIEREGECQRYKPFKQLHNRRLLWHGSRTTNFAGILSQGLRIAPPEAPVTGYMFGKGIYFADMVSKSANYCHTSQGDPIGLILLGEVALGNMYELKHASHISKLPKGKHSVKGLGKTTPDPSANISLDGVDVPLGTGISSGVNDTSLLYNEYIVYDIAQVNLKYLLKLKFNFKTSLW
T1 sequence (Q13535 whole entry): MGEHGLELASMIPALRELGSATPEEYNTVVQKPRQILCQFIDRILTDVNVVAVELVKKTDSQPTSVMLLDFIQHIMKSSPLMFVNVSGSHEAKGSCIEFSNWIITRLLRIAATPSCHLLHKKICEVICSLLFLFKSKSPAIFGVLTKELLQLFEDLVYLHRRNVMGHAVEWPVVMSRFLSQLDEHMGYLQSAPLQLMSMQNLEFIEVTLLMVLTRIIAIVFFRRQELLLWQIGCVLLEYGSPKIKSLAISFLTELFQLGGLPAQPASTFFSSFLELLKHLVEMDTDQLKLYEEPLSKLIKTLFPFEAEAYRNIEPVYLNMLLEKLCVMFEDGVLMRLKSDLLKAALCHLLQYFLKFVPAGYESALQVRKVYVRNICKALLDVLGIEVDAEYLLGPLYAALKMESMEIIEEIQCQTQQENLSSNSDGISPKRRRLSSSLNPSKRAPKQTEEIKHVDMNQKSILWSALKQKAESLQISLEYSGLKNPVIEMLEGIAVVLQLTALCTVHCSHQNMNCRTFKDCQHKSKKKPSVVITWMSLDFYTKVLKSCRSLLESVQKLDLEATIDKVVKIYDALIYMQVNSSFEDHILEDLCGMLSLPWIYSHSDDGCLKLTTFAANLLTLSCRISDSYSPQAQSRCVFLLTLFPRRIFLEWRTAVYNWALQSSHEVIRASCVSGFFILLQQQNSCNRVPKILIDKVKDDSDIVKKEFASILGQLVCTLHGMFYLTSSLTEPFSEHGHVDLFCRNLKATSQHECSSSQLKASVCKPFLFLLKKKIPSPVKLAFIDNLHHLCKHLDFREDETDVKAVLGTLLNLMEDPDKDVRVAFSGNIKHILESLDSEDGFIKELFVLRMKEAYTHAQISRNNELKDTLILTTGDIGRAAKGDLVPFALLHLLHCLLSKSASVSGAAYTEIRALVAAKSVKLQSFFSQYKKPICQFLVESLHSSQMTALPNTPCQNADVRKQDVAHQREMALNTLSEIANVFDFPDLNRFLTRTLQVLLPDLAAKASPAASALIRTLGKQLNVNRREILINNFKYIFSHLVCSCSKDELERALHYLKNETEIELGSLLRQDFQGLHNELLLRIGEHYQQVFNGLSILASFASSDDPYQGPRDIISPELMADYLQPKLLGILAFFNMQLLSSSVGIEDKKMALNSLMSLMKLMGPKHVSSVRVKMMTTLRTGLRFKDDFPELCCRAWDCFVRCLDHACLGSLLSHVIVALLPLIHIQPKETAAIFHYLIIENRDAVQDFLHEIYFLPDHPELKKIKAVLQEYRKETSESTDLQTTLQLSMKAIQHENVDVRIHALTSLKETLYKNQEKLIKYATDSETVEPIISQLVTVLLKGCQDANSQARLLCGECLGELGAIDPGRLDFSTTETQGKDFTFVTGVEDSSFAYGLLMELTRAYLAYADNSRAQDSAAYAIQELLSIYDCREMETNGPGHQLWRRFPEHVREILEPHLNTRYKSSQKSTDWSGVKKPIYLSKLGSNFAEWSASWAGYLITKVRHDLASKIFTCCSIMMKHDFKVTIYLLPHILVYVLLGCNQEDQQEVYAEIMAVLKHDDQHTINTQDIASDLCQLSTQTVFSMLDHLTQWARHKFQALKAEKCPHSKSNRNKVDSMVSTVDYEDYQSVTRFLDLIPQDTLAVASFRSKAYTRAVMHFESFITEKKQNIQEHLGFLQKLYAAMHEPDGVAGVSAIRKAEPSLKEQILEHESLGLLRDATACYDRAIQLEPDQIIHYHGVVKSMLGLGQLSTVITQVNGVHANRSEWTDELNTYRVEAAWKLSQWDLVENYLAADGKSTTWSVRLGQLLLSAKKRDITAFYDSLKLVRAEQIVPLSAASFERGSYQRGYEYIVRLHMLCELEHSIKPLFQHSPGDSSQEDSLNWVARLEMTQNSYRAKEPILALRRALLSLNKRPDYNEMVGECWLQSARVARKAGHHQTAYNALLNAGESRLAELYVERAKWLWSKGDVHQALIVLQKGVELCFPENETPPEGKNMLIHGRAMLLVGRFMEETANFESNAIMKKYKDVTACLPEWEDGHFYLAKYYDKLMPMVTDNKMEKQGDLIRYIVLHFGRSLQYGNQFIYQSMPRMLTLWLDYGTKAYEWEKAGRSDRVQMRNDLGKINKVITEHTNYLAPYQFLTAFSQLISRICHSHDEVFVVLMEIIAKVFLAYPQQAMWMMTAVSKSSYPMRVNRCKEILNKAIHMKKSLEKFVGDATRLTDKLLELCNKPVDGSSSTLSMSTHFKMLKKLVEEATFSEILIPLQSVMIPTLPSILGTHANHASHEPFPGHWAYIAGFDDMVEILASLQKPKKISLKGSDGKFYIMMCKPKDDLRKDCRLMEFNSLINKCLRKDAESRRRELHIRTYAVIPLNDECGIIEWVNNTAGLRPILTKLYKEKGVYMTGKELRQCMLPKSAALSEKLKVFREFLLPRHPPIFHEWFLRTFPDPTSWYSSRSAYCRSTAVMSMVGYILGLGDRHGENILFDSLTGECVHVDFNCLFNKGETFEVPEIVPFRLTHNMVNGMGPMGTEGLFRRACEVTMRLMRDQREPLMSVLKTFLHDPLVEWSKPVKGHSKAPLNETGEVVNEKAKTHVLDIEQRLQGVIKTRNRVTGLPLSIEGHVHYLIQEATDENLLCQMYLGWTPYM
T1 sequence (Q8WXE1 whole entry partner): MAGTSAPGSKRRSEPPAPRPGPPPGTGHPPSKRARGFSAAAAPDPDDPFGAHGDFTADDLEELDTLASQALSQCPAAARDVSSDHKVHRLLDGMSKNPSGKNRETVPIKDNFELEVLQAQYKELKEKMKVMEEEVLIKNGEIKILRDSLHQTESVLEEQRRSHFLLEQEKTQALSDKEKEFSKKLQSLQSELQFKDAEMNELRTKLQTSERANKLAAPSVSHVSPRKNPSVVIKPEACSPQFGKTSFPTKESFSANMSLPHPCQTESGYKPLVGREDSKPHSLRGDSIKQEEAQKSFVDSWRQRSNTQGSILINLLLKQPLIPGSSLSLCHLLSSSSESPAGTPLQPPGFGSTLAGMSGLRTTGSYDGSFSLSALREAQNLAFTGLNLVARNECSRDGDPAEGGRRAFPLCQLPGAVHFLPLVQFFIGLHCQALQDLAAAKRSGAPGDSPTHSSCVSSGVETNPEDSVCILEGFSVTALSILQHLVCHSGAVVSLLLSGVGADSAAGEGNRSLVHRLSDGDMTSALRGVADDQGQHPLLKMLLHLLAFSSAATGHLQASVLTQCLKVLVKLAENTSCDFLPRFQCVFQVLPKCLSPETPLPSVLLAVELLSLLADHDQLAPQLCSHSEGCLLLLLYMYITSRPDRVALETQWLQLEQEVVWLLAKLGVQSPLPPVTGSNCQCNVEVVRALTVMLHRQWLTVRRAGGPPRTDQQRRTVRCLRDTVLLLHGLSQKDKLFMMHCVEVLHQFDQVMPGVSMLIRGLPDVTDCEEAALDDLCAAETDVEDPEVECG

With `O=C(c1cc(Cc2n[nH]c(=O)c3ccccc23)ccc1F)N1CCN(C(=O)C2CC2)CC1` [1 (Olaparib), Olaparib, reference compound], the IC50 – broadly, the point on the concentration scale where inhibition reaches its midpoint – in assay [1] is 21.9 ± 2.36 µM; in assay [2] it was 10.5 ± 0.59 µM; in [6], above 30 µM; in assay [7] (MDA-MB-453, read-out: IC50 MAD‐MB‐453) it was above 30 µM; in assay [8], 4.53 ± 0.21 µM; in assay [8] (setting [14]), 4.5 µM. The “effect on cell cycle distribution” value in [3] and in [4] was “did not significantly change the cell cycle distribution” each time. Also, in [5], the inhibition at 30 µM was determined as 14.5%.

Turning to `C[C@@H]1COCCN1c1cc(C2([S@](C)(=N)=O)CC2)nc(-c2cc[nH]c3nccc2-3)n1` [8 (AZD6738), Ceralasertib, reference compound], the IC50 in [2] turned out to be 18.6 ± 1.75 µM; in assay [6], 2.01 ± 0.43 µM; in assay [7] (MDA-MB-453, n = 3, read-out: IC50 MAD‐MB‐453), 1.46 ± 0.17 µM; in [8] it was 3.84 ± 0.52 µM; in assay [8] (setting [14]), 3.8 µM. In [4], the “effect on cell cycle distribution” value is “did not significantly change the cell cycle distribution”. Moreover, the inhibition at 30 µM in [5] came out at 25.9%.

Regarding `C[C@@H]1COCCN1c1cc(C2(NC(=O)c3cc(Cc4n[nH]c(=O)c5ccccc45)ccc3F)CC2)nc(-c2ccnc3[nH]ccc23)n1` [Compound A1, (R)‐2‐fluoro‐N‐(1‐(6‐(3‐methylmorpholino)‐2‐(1H‐pyrrolo[2,3‐b]pyridin‐4‐yl)pyrimidin‐4‐yl)cyclopropyl)‐5‐((4‐oxo‐3,4‐dihydrophthalazin‐1‐yl)methyl)benzamide], the IC50 in [1] came out at 5.26 ± 1.14 µM; in [2], 8.54 ± 1.07 µM; in assay [9], 0.215 ± 0.022 µM; in [11] it was 1.15 ± 0.043 µM; in assay [8] (setting [14]) it was 2.92 ± 2.05 µM. Also, the “activity against ATR (SAR summary in words, Figure 7)” value in assay [9] was “moderate activity”. Also, the “activity against TNBC cells (SAR summary in words, Figure 7)” value in assay [10] is listed as “weak activity”. Besides, the “activity against PARP1 (SAR summary in words, Figure 7)” value in assay [11] is reported as “moderate activity”.

`C[C@@H]1COCCN1c1cc(C2(NC(=O)c3ccc(C(=O)N4CCN(C(=O)c5cc(Cc6n[nH]c(=O)c7ccccc67)ccc5F)CC4)cc3)CC2)nc(-c2ccnc3[nH]ccc23)n1` [Compound A7, (R) ‐4‐(4‐(2‐fluoro‐5‐((4‐oxo‐3,4‐dihydrophthalazin‐1‐yl)methyl)benzoyl)piperazine‐1‐carbonyl)‐N‐(1‐(6‐(3‐methylmorpholino)‐2‐(1H‐pyrrolo[2,3‐b]pyridin‐4‐yl)pyrimidin‐4‐yl)cyclopropyl)benzamide]: the “ability to induce apoptosis vs combination of AZD6738 and Olaparib” value in assay [12] and in [13] was “does not show a significant enhancement” each time. Further, the IC50 amounted to 13.4 ± 3.44 µM in assay [1]; 0.23 ± 0.07 µM in assay [2]; 0.043 ± 0.007 µM in assay [9]; 0.00056 ± 0.00021 µM in [11]; 0.015 ± 0.001 µM in [8] (setting [14]). Moreover, the “effect on cell cycle distribution” value in assay [3] and in [4] was “did not demonstrate any significant effects on the cell cycle” in each case.

Consider `C[C@@H]1COCCN1c1cc(CNC(=O)c2cc(Cc3n[nH]c(=O)c4ccccc34)ccc2F)nc(-c2ccnc3[nH]ccc23)n1` [Compound B1, (R)‐2‐fluoro‐N‐((6‐(3‐methylmorpholino)‐2‐(1H‐pyrrolo[2,3‐b]pyridin‐4‐yl)pyrimidin‐4‐yl)methyl)‐5‐((4‐oxo‐3,4‐dihydrophthalazin‐1‐yl)methyl)benzamide], for which the IC50 in assay [1] came out at 3.05 ± 0.76 µM; in [2] it was 7.88 ± 1.14 µM; in [9] it was 0.0395 ± 0.0037 µM; in [11], 0.42 ± 0.031 µM; in assay [8] (setting [14]), 0.91 ± 0.05 µM. The “activity against ATR (SAR summary in words, Figure 7)” value in assay [9] is given as “moderate activity”. Further, in assay [10], the “activity against TNBC cells (SAR summary in words, Figure 7)” value is listed as “weak activity”. The “activity against PARP1 (SAR summary in words, Figure 7)” value in [11] was “moderate activity”.
